Data: patent US20100173837A1, “DOSING FORMS AND REGIMENS COMPRISING 3-[(R)-2-(N,N-DIMETHYLAMINO)ETHYLTHIO-SAR]-4-(GAMMAHYDROXYMETHYLLEUCINE)CYCLOSPORINE” (priority 2009, published 2010)
Converted amounts (≈) assume the structure as drawn. “And” between values parts separate entries of the source, which are not always exact repeats. Identical values can stand only once. Like-named read-outs stand apart in the source and are kept apart here.

Key:
[1] = tested on: Huh-7 cell line; assay: in vitro; settings: Huh-7 cell line
Protocol: (§1) Cell cytotoxicity was assessed by measuring the release of lactate dehydrogenase from cell membranes and by measuring total ribosomal RNA. […] SCY-635 was assessed for cytotoxicity in primary human hepatocytes. […] SCY-635 was also assessed for cytotoxicity in primary human renal tubular epithelial cells.

[2] = in vitro; settings: human
Protocol: as §1

[3] = tested on: human hepatoma cell line containing full length replicon; assay: cytotoxicity in full length replicon cells (ribosomal RNA); format: cell-based; settings: concentrations up to 10 μM, 72-hour incubation
Protocol: (§2) The anti-HCV activity of SCY-635 was also assessed in a human hepatoma cell line that contains a full length genotype 1b derived replicon. Cells were processed following a 72-hour incubation at 37° C. Intracellular RNA from each well was extracted and the level of HCV-specific RNA was determined by reverse transcriptase-real time PCR. Cytotoxic effects were measured by assessing ribosomal RNA as an indication of total cell numbers.

[4] = human, in vivo
Protocol: SCY-635 (given as oral capsules as described in Example 3 above) was examined in a randomized, double-blind, placebo-controlled, multi-dose study to adult volunteers who are chronically infected with hepatitis C (subtype 1). Three cohorts received 100, 200 or 300 milligrams of SCY-635 three times per day (100 mg, 200 mg or 300 mg t.i.d., respectively) per os for 15 consecutive days. The 100 mg t.i.d. cohort was comprised of 7 human subjects (1 placebo and 6 active); the 200 mg t.i.d. cohort was comprised of 6 human subjects (1 placebo and 5 active); and the 300 mg t.i.d. cohort was comprised of 7 human subjects (1 placebo and 6 active).
All human subjects were male (n=20); 75% were African American. Average age was 53.0 years. Average HCV RNA plasma viremia on enrollment was 5,600,000 IU/ml, as measured by the quantitative Roche COBAS taqMan assay. 55% of human subjects were treatment naïve.

[5] = tested on: primary human hepatocytes
Protocol: as §1

[6] = tested on: primary human renal tubular epithelial cells
Protocol: as §1

[7] = tested on: hepatitis C (subtype 1); assay: plasma HCV RNA viral load in HCV-infected subjects, 15-day t.i.d. study; format: in vivo, human; settings: 15 days, per os
Protocol: All human subjects were male (n=20); 75% were African American. Average age was 53.0 years. […] Viral load data from the study described in Example 4 above was measured by the quantitative Roche COBAS […] assay. The test measures HCV RNA in International Units (IU) per mL using real-time Polymerase Chain Reaction (RT-PCR) technology. […] All clinical viral load samples were assayed at LabCorp.

[8] = biological target: T1, cyclophilin A (Homo sapiens, UniProt P62937); settings: in vitro studies; cited from earlier work
T1 sequence (P62937 whole entry): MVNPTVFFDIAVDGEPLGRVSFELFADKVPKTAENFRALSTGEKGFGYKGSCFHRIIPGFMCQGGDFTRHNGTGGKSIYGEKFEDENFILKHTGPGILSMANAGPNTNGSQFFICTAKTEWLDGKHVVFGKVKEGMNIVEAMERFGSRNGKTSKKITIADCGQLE

[9] = tested on: HCV-specific RNA replication; settings: subgenomic and full length replicon systems; cited from earlier work
[10] = tested on: Con1 (genotype 1b) bi-cistronic subgenomic replicon in Huh-7; assay: anti-HCV activity in Huh-7 subgenomic replicon, luciferase; format: cell-based; settings: for EC50 / EC90 / IC50 / IC90: Hepatitis C virus; for EC50: corresponds to IC50 in μM, read-out: mean effective concentration EC50; for EC90: read-out: mean effective concentration EC90
Protocol: The anti-HCV activity of SCY-635 was assessed in a human hepatoma cell line (Huh-7) that contains a Con1 (genotype 1b) bi-cistronic subgenomic replicon. The replicon contains a stable luciferase reporter gene and three cell culture adaptive mutations. The subgenomic replicon contains the 5′ terminus (which includes the HCV Internal Ribosomal Entry Site and the first few amino acids of the HCV core protein) which drives the production of the neomycin phosphotransferase protein. The EMCV IRES element directs the translation of the second cistronic unit that encodes the non-structural proteins NS3, NS4A, NS4B, NS5A, and NS5B. For comparative purposes HCV RNA replication was assessed by quantifying HCV replicon-derived luciferase activity and by quantifying HCV-specific RNA using reverse transcriptase-real time PCR. Duplicate plates were incubated with various concentrations of SCY-635 and were processed either for luciferase activity or for total RNA extraction at 24, 48, 72 and 120 hours after drug treatment. SCY-635 was tested at twelve half-log dilutions ranging from 0.00016 to 50 μM. Stock solutions of each test article were diluted into culture media and added to the plate. After a 72 hour incubation, cells were processed to determine luciferase luminescence as a measurement of antiviral activity. Three replicates were performed and mean values were calculated.

[11] = human, in vivo; remark: listed apart in the source
Text: (§3) SCY-635 (given as oral tablets as described in Example 3 above) was examined in a double-blind, placebo-controlled, pharmacokinetic study in normal healthy adult volunteers. […] On Day 14, only the morning dose of drug was given and blood samples were collected during the 72-hour interval immediately following administration of the final dose. In addition, blood samples for the measurement of trough drug concentrations were collected from the subjects immediately prior to the administration of SCY-635 on the mornings of Days 2-6 and 8-13.

[12] = single dose pharmacokinetic study in healthy volunteers; settings: human, in vivo, 400 mg single dose (capsules), read-out: Mean SCY-635 Plasma Concentration
Protocol: Blood samples were collected from human subjects during the 72-hour interval immediately following administration of a single dose of SCY-635. […] Concentrations of SCY-635 in human blood and plasma samples from the study described in this Example were determined using validated high pressure liquid chromatography/tandem mass spectrometric (HPLC-MS/MS) methods with assay ranges of 50 to 5000 ng/mL for whole blood and 15 to 2000 ng/mL for plasma. The table below summarizes the results obtained (“BLOQ” means below the limit of quantitation).

[13] = tested on: full length genotype 1b derived replicon in human hepatoma cell line; assay: anti-HCV activity in full length genotype 1b replicon, RT-PCR; format: cell-based; settings: 72-hour incubation
Protocol: as §2

[14] = biological target: T1, cyclophilin A; settings: in vitro studies; cited from earlier work; remark: listed apart in the source
[15] = 500 mg b.i.d. 14-day pharmacokinetic study in healthy volunteers; settings: human, in vivo, 264 h post first dose, read-out: Mean SCY-635 Plasma Concentration
Text: as §3, with “8-13. […] Concentrations of SCY-635 in human blood and plasma samples from the two subjects were determined using validated high pressure liquid chromatography/tandem mass spectrometric (HPLC-MS/MS) methods with assay ranges of 50 to 5000 ng/mL for whole blood and 15 to 2000 ng/mL for plasma.” for “8-13.”

[16] = tested on: replicon cells; assay: cell cytotoxicity on replicon cells (LDH release, ribosomal RNA); settings: replicon cells
Protocol: as §1

[17] = as above; settings: human, replicon cells (Huh-7 background)
Protocol: as §1

[18] = human, in vivo; remark: listed apart in the source
Text: SCY-635 (given as oral capsules [400 milligram dose] or tablets [500 and 600 milligram doses] as described in Example 3 above) was examined in a randomized, double-blind, placebo-controlled, pharmacokinetic study in normal healthy adult volunteers. Three cohorts received a single dose of either 400, 500 or 600 milligrams of SCY-635. Each cohort was comprised of 8 human subjects (2 placebo and 6 active). Blood samples were collected from human subjects during the 72-hour interval immediately following administration of a single dose of SCY-635.

[19] = Huh-7, by inspection of the curves
[20] = linear regression, 72 hour incubation, luciferase

Which results are given for C/C=C/C[C@@H](C)[C@@H](O)[C@H]1C(=O)N[C@@H](CC)C(=O)N(C)[C@H](SCCN(C)C)C(=O)N(C)[C@@H](CC(C)(C)O)C(=O)N[C@@H](C(C)C)C(=O)N(C)[C@@H](CC(C)C)C(=O)N[C@@H](C)C(=O)N[C@H](C)C(=O)N(C)[C@@H](CC(C)C)C(=O)N(C)[C@@H](CC(C)C)C(=O)N(C)[C@@H](C(C)C)C(=O)N1C [SCY-635, 3-[(R)-2-(N,N-dimethylamino)ethylthio-Sar]-4-(gammahydroxymethylleucine)cyclosporine]?
selectivity index (CC50/IC50) [1]: 124.5; CC50 at 72 h [2]: 13700 nM; cell cytotoxicity [3]: absence of significant cell cytotoxicity; dose limiting toxicity [4]: no evidence of a dose limiting toxicity; 50% inhibitory concentration for cell viability ([5]; human, 48 h): 33 µM; selectivity index ([5]; primary human hepatocytes): approximately 300; 50% inhibitory concentration for cell viability [6]: 60.6 µM; mean nadir value of plasma HCV RNA below baseline ([7]; 100 mg t.i.d.): less than 0.5 log10; median nadir value of plasma HCV RNA below baseline ([7]; 100 mg t.i.d.): less than 0.5 log10; mean nadir value of plasma HCV RNA below baseline ([7]; 200 mg t.i.d.): less than 0.5 log10; median nadir value of plasma HCV RNA below baseline ([7]; 200 mg t.i.d.): less than 0.5 log10; group mean nadir value of plasma HCV RNA below baseline ([7]; 300 mg t.i.d.): 2.33 log10; group median nadir value of plasma HCV RNA below baseline ([7]; 300 mg t.i.d.): 1.90 log10; inhibition of peptidyl prolyl isomerase activity of cyclophilin A [8]: inhibiting its intrinsic peptidyl prolyl isomerase activity; inhibition of HCV-specific RNA replication [9]: potent and selective inhibition; EC50 [10, 19]: 0.107 µg/mL (≈ 0.0809 µM); EC50 ([10]; Huh-7, linear regression): 0.121 µg/mL (≈ 0.0915 µM); EC90 ([10]; Huh-7, linear regression, corresponds to IC90 in μM): 0.501 µg/mL (≈ 0.379 µM); IC50 ([10]; Huh-7, by inspection of the curves, 72 hour incubation, luciferase, read-out: mean IC50 (HCV replication)): 81 nM; IC90 ([10]; Huh-7, by inspection of the curves, read-out: mean IC90 (HCV replication)): 333 nM; EC90 [10, 19]: 0.441 µg/mL (≈ 0.334 µM); IC50 ([10]; Huh-7, linear regression, 72 hour incubation, luciferase, read-out: mean calculated IC50 (HCV replication)): 91 nM; IC90 ([10]; Huh-7, linear regression, 72 hour incubation, luciferase, read-out: mean calculated IC90 (HCV replication)): 397 nM; mean IC75 (HCV replication) ([10]; by inspection of the curves): 165 nM; mean IC95 (HCV replication) ([10]; by inspection of the curves): 410 nM; mean IC98 (HCV replication) ([10]; by inspection of the curves): 0.500 µM; mean effective concentration EC75 ([10]; by inspection of the curves): 0.217 µg/mL; mean effective concentration EC95 ([10]; by inspection of the curves): 0.542 µg/mL; mean effective concentration EC98 ([10]; by inspection of the curves): 661 ng/mL; mean effective concentration EC99 ([10]; by inspection of the curves): 2088 ng/mL; sixth IC value of the list (not named; matches EC99) ([10]; by inspection of the curves): 1.580 µM; mean calculated IC75 (HCV replication) [10, 20]: 200 nM; mean calculated IC95 (HCV replication) [10, 20]: 455 nM; mean effective concentration EC75 ([10]; linear regression, corresponds to IC75 in μM): 0.264 µg/mL; mean effective concentration EC95 ([10]; linear regression, corresponds to IC95 in μM): 0.601 µg/mL; dose limiting toxicity [11]: no evidence of a dose limiting toxicity; concentration at 8 h [12]: 107 ng/mL; EC50 ([13]; 3 independent experiments, single values, read-out: EC50 (HCV-specific RNA)): 160 nM and 210 nM; EC90 ([13]; 3 independent experiments, single values, read-out: EC90 (HCV-specific RNA)): 710 nM and 790 nM; EC50 ([13]; Hepatitis C virus, 72 h, 3 independent experiments, single values, read-out: EC50 (HCV-specific RNA)): 130 nM; EC90 ([13]; Hepatitis C virus, 72 h, 3 independent experiments, single values, read-out: EC90 (HCV-specific RNA)): 570 nM; EC50 ([13]; Hepatitis C virus, 72 h, mean of 3 experiments, read-out: mean EC50 (HCV-specific RNA)): 170 nM; EC90 ([13]; Hepatitis C virus, 72 h, mean of 3 experiments, read-out: mean EC90 (HCV-specific RNA)): 690 nM; binding to cyclophilin A [14]: capable of binding to cyclophilin A; concentration at 264 h [15]: 411 ng/mL; selectivity index (CC50/IC50) [16]: 129.0; cell cytotoxicity ([16]; 72-hour incubation, concentrations up to and including 5 μM): No significant cell cytotoxicity; CC50 at 72 h [17]: 14200 nM; dose limiting toxicity [18]: no evidence of a dose limiting toxicity
